{
  "source": "patent US9404916B2",
  "about": "“Use of a protein kinase inhibitor to detect immune cells, such as T cells” (University College Cardiff Consultants Limited, priority 2008, dated 2016)",
  "key": {"ILA1 CTL [1]": {"test_system": "ILA1 CTL", "test": "pMHCI tetramer staining of ILA1 CTL clone after PKI pre-treatment (flow cytometry)", "type": "cell-based, human", "settings": "for enhancement of tetramer staining after PKI pre-incubation: ILA1 CTL, data not shown"}, "ILA1 CTL [2]": {"test_system": "ILA1 CTL", "test": "TCR and CD8 expression levels at the CTL cell surface", "type": "cell-based, human", "settings": "50 nM dasatinib 37° C."}, "T-cell clones": {"test_system": "T-cell clones", "test": "Recovery of responsiveness to antigen after drug removal", "type": "cell-based", "settings": "T-cell clones incubated in 50 nM dasatinib for 24 hours; data not shown"}, "[3]": {"test_system": "CTL lines (Melan-A/Mart-1 26-35 and influenza matrix M1 58-66)", "test": "Cognate tetramer staining of HLA A2-restricted CTL lines expanded from PBMC", "type": "cell-based, human", "settings": "50 nM dasatinib"}, "naïve murine F5 TCR CTL": {"test_system": "naïve murine F5 TCR CTL", "test": "H2-Db/[…] tetramer staining of F5 TCR transgenic splenocytes", "type": "cell-based, mouse", "settings": "50 nM dasatinib 30 minutes", "from_the_text": "C. […] Samples were washed with PBS before flow cytometric analysis."}, "Mel13 CTL": {"test_system": "Mel13 CTL", "test": "Antigen-induced TCR downregulation", "settings": "50 nM dasatinib; peptide-pulsed C1R-A2 B cells, 4 hours"}, "[4]": {"test_system": "tetramer-positive CD3+CD8+ T-cells", "type": "cell-based, human", "protocol": ". It is known that pMHCI tetramer-induced signaling can trigger cell death (Purbhoo et al., 2001; Xu et al., 2001; Guillaume et al., 2003; Cebecauer et al., 2005). Cell death induced by tetramer staining was assessed using the amine-reactive viability dye GrViD at the end of the staining procedure, which is spectrally distinct from ViViD. PBMC were stained with ViViD to identify and allow exclusion of dead and dying cells prior to the addition of pMHCI tetramer; GrVID staining was performed after pMHCI tetramer and surface antibody staining. Data were acquired on a BD LSR II flow cytometer and analyzed using FlowJo software. ViViD^±, CD14^+ and CD19^+ cells were excluded from the analysis and the frequency of GrViD-positive cells was assessed in the tetramer-positive CD3+CD8^+ T-cell populations. Representative flow profiles are shown here for CD^+T-cells specific for the HLA A2-restricted epitopes CMV pp65495-503 ([…](SEQ ID NO:3)) and EBV BMLFI259-267 ([…] SEQ ID NO:4)). […]. […] Stained PBMC were acquired on a BD LSR II (Becton Dickinson Immunocytometry Systems, San Jose, Calif., USA) and analyzed using FlowJo software (Tree Star, Inc., Ashland, Oreg., USA)."}, "T-cells": {"test_system": "T-cells", "settings": "cited from earlier work"}, "ILA1 CTL [5]": {"test_system": "ILA1 CTL", "test": "pMHCI tetramer on-rate experiment", "settings": "dasatinib+tetramer; 50 nM 30 minutes 37° C.; HLA A2/hTERT540-548 tetramer"}, "[6]": {"test_system": "antigen-specific CD8+ T-cells in PBMC", "test": "pMHCI tetramer staining of PBMC directly ex vivo", "type": "cell-based, human"}, "[7]": {"test": "Shelf-life of working solution", "type": "physicochemical", "settings": "100 nM in PBS", "protocol": "Biological activity was tested in a cell death titration assay on BA/F3 bcr-abl cells as described previously (Magnusson et al., 2002). […] The 1 mM DMSO stock was diluted 1/10,000 in PBS on the day of experimentation to achieve a working solution of 100 nM; subsequent ½ dilution yielded a final concentration of 50 nM in cellular assays unless stated otherwise. The 100 nM working solution was always made up on the day of experimentation as the shelf-life of this solution is short (˜days). Staurosporine (Biomol), Lck inhibitor II (Calbiochem), genestein (calbiochem), herbimycin A (Calbiochem), PP2 (Calbiochem) and PP3 (Calbiochem) were dissolved and stored at −20° C. in DMSO. PKIs were dissolved in PBS prior to use and tested at concentrations of 1 nM, 3 nM, 5 nM, 10 nM, 20 nM, 50 nM, 100 nM, 250 nM, 500 nM and 1 μM."}, "[8]": {"test_system": "HLA DR*0101-restricted CD4+ T-cell clone C6", "settings": "50 nM dasatinib 30 minutes"}, "[9]": {"molecular_target": "IE6 TCR (on CTL clone IE6)"}},
  "note": "Values joined by “and” are separate entries in the source; they are usually repeats but may differ in a detail not shown here. Equal entries are not always repeated. “Also recorded” adds a separate entry of the source.",
  "data": [
    {"molecule": "CC(C)(C)n1nc(-c2ccc(Cl)cc2)c2c(N)ncnc21", "note": "[PP2]", "values": [
      {"measurement": "enhancement of tetramer staining after PKI pre-incubation", "setting": "ILA1 CTL [1]", "value": "moderate increase"}
    ]},
    {"molecule": "Nc1ncnc2c1cnn2-c1ccccc1", "note": "[PP3]", "values": [
      {"measurement": "enhancement of tetramer staining after PKI pre-incubation", "setting": "ILA1 CTL [1]", "value": "no significant enhancement"}
    ]},
    {"molecule": "Cc1nc(Nc2ncc(C(=O)Nc3c(C)cccc3Cl)s2)cc(N2CCN(CCO)CC2)n1", "note": "[dasatinib, N-(2-chloro-6-methyl-phenyl)-2-(6-(4-(2-hydroxyethyl)-piperazin-1-yl)-2-methylpyrimidin-4-ylamino)thiazole-5-carboxamide]", "values": [
      {"measurement": "time until significant increases in TCR and CD8 levels", "setting": "ILA1 CTL [2]", "value": "> 30", "unit": "min"},
      {"measurement": "time to regain responsiveness to antigen after drug removal", "setting": "T-cell clones", "value": "≤ 1", "unit": "h"},
      {"measurement": "increase in fluorescence intensity of T-cells that bound tetramer weakly", "setting": "[3]", "value": "> 20", "unit": "fold"},
      {"measurement": "increase in staining intensity of all cognate CD8+ T-cells", "setting": "[3]", "value": "at least 2 fold"},
      {"measurement": "pMHCI tetramer staining of naïve murine F5 TCR CTL directly ex vivo", "setting": "naïve murine F5 TCR CTL", "value": "enhanced"},
      {"measurement": "increase in pMHCI tetramer staining", "setting": "ILA1 CTL [1]", "value": 60, "unit": "%"},
      {"measurement": "increase in pMHCI tetramer staining intensity", "setting": "ILA1 CTL [1]", "value": 89, "unit": "%"},
      {"measurement": "antigen-induced TCR downregulation from the CTL surface", "setting": "Mel13 CTL", "value": "block antigen-induced TCR downregulation"},
      {"measurement": "frequency of GrViD-positive dead cells within the tetramer-positive population", "setting": "[4]", "value": "always lower; also recorded: reduced"},
      {"measurement": "concentrations not toxic to T-cells in the short term", "setting": "T-cells", "value": "< 100", "unit": "nM"},
      {"measurement": "tetramer on-rate, fast rate", "setting": "ILA1 CTL [5]", "value": 0.42, "unit": "min⁻¹"},
      {"measurement": "tetramer on-rate, slow rate", "setting": "ILA1 CTL [5]", "value": 0.06, "unit": "min⁻¹"},
      {"measurement": "pMHCI staining intensity and percentage of antigen-specific CD8+ T-cells", "setting": "[6]", "value": "substantial increase"},
      {"measurement": "shelf-life of 100 nM working solution", "setting": "[7]", "value": "short"},
      {"measurement": "pMHCII tetramer staining of CD4+ T-cell clone", "setting": "[8]", "value": "enhanced"}
    ]},
    {"molecule": "O=c1c(-c2ccc(O)cc2)coc2cc(O)cc(O)c12", "note": "[genestein]", "values": [
      {"measurement": "enhancement of tetramer staining after PKI pre-incubation", "setting": "ILA1 CTL [1]", "value": "no significant enhancement"}
    ]},
    {"molecule": "CO[C@H]1[C@@H](OC)C[C@H](C)[C@@H](OC)C2=CC(=O)C=C(NC(=O)/C(C)=C/C=C\\[C@H](OC)[C@@H](OC(N)=O)/C(C)=C/[C@@H]1C)C2=O", "note": "[herbimycin, herbimycin A]", "values": [
      {"measurement": "enhancement of tetramer staining after PKI pre-incubation", "setting": "ILA1 CTL [1]", "value": "no significant enhancement"}
    ]},
    {"molecule": "CN[C@@H]1C[C@H]2O[C@@](C)([C@@H]1OC)n1c3ccccc3c3c4c(c5c6ccccc6n2c5c31)C(=O)NC4", "note": "[staurosporine]", "values": [
      {"measurement": "enhancement of tetramer staining after PKI pre-incubation", "setting": "ILA1 CTL [1]", "value": "no significant enhancement"}
    ]},
    {"molecule": "HLA A2 presenting PPI15-24 peptide on pulsed target cells (from UniProt P61769 21-119) (peptide-MHC)", "values": [
      {"measurement": "% TNFα-positive cells (intracellular cytokine staining, TNF-APC against SSC-Height, 6 h with PPI peptide)", "setting": "[9]", "value": 30.9, "unit": "%"}
    ]},
    {"molecule": "HLA A2/PPI15-24 tetramer (from UniProt P61769 21-119) (peptide-MHC)", "values": [
      {"measurement": "MFI", "setting": "Short term line", "value": "217 and 347"}
    ]}
  ]
}
